Assay results: patent US20230111310A1, “CARBOXYLIC ACID DERIVATIVE-SUBSTITUTED IMINO ARYL COMPOUND, PREPARATION METHOD THEREFOR, HERBICIDAL COMPOSITION AND USE THEREOF” (Qingdao Kingagroot Chemical Compound Co., Ltd., priority 2020, published 2023)

Tests used:
Test in all cases: Weeding effect in post-emergence stage
Type in all cases: in vivo
Setaria viridis = conditions: for Weeding effect in post-emergence stage, Setaria viridis (level): fresh weight control rate level; for Weeding effect in post-emergence stage, Setaria viridis: level of fresh weight growth control rate
How it was run: (§1)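 Weeds were treated post-emergence at 2-3 leaves with compound doses from 7.5 up to 500 g/ha, formulated in acetone–Tween 80 with methyl oleate synergist. Efficacy was assessed as growth control after 3 weeks.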

Eleusine indica = conditions: for Weeding effect in post-emergence stage, Eleusine indica (level): fresh weight control rate level; for Weeding effect in post-emergence stage, Eleusine indica: level of fresh weight growth control rate
How it was run: as §1

Digitaria sanguinalis = conditions: for Weeding effect in post-emergence stage, Digitaria sanguinalis (level): fresh weight control rate level; for Weeding effect in post-emergence stage, Digitaria sanguinalis: level of fresh weight growth control rate
How it was run: as §1

Alopecurus japonicus = conditions: for Weeding effect in post-emergence stage, Alopecurus japonicus (level): fresh weight control rate level; for Weeding effect in post-emergence stage, Alopecurus japonicus: level of fresh weight growth control rate
How it was run: as §1

Abutilon theophrasti = conditions: for Weeding effect in post-emergence stage, Abutilon theophrasti (level): fresh weight control rate level; for Weeding effect in post-emergence stage, Abutilon theophrasti: level of fresh weight growth control rate
How it was run: as §1

Echinochloa crusgalli = conditions: for Weeding effect in post-emergence stage, Echinochloa crusgalli (level): fresh weight control rate level; for Weeding effect in post-emergence stage, Echinochloa crusgalli: level of fresh weight growth control rate
How it was run: as §1

SMILES | Weeding effect in post-emergence stage, Setaria viridis (Setaria viridis; Dose 15 g/ha) | Weeding effect in post-emergence stage, Eleusine indica (Eleusine indica; Dose 15 g/ha) | Weeding effect in post-emergence stage, Digitaria sanguinalis (Digitaria sanguinalis; Dose 15 g/ha) | Weeding effect in post-emergence stage, Alopecurus japonicus (Alopecurus japonicus; Dose 15 g/ha) | Weeding effect in post-emergence stage, Abutilon theophrasti (Abutilon theophrasti; Dose 15 g/ha) | Weeding effect in post-emergence stage, Echinochloa crusgalli (Echinochloa crusgalli; Dose 15 g/ha) | also measured
CCCSC(=O)C(C)O/N=C/c1cc(-n2c(=O)cc(C(F)(F)F)n(C)c2=O)c(F)cc1Cl (stereo not drawn) [Compound 399] |  |  |  |  |  |  | Weeding effect in post-emergence stage, Setaria viridis (level) (Setaria viridis; Dose 15 g/ha): 5 (Level 5: growth control rate is above 85%); Weeding effect in post-emergence stage, Eleusine indica (level) (Eleusine indica; Dose 15 g/ha): 5 (Level 5: growth control rate is above 85%); Weeding effect in post-emergence stage, Digitaria sanguinalis (level) (Digitaria sanguinalis; Dose 15 g/ha): 5 (Level 5: growth control rate is above 85%); Weeding effect in post-emergence stage, Alopecurus japonicus (level) (Alopecurus japonicus; Dose 15 g/ha): 5 (Level 5: growth control rate is above 85%); Weeding effect in post-emergence stage, Abutilon theophrasti (level) (Abutilon theophrasti; Dose 15 g/ha): 5 (Level 5: growth control rate is above 85%); Weeding effect in post-emergence stage, Echinochloa crusgalli (level) (Echinochloa crusgalli; Dose 15 g/ha): 5 (Level 5: growth control rate is above 85%)
CC(O/N=C/c1cc(-n2c(=O)n(C)c(=S)n(C)c2=O)c(F)cc1Cl)C(=O)OCC1CCCO1 (stereo not drawn) [Compound 24] | 5 (Level 5: growth control rate is above 85%) | 5 (Level 5: growth control rate is above 85%) | 5 (Level 5: growth control rate is above 85%) | 5 (Level 5: growth control rate is above 85%) | 5 (Level 5: growth control rate is above 85%) | 5 (Level 5: growth control rate is above 85%) | 
COC(=O)C(C)O/N=C/c1cc(-n2c(=O)n(C)c(=S)n(C)c2=S)c(F)cc1Cl (racemic) [Compound 124] | 5 (Level 5: growth control rate is above 85%) | 5 (Level 5: growth control rate is above 85%) | 5 (Level 5: growth control rate is above 85%) | 4 (Level 4: growth control rate is greater than or equal to 60% and less than 85%) | 5 (Level 5: growth control rate is above 85%) | 5 (Level 5: growth control rate is above 85%) | 
CC(C)SC(=O)[C@@H](C)O/N=C/c1cc(-n2c(=O)cc(C(F)(F)F)n(C)c2=O)c(F)cc1Cl [400(R)] |  |  |  |  |  |  | Weeding effect in post-emergence stage, Setaria viridis (level) (Setaria viridis; Dose 15 g/ha): 5 (Level 5: growth control rate is above 85%); Weeding effect in post-emergence stage, Eleusine indica (level) (Eleusine indica; Dose 15 g/ha): 5 (Level 5: growth control rate is above 85%); Weeding effect in post-emergence stage, Digitaria sanguinalis (level) (Digitaria sanguinalis; Dose 15 g/ha): 5 (Level 5: growth control rate is above 85%); Weeding effect in post-emergence stage, Alopecurus japonicus (level) (Alopecurus japonicus; Dose 15 g/ha): 5 (Level 5: growth control rate is above 85%); Weeding effect in post-emergence stage, Abutilon theophrasti (level) (Abutilon theophrasti; Dose 15 g/ha): 5 (Level 5: growth control rate is above 85%); Weeding effect in post-emergence stage, Echinochloa crusgalli (level) (Echinochloa crusgalli; Dose 15 g/ha): 5 (Level 5: growth control rate is above 85%)
CCCCOC(=O)[C@@H](C)O/N=C/c1cc(-n2c(=O)cc(C(F)(F)F)n(C)c2=O)c(F)cc1Cl [200(R)] | 5 (Level 5: growth control rate is above 85%) | 5 (Level 5: growth control rate is above 85%) | 5 (Level 5: growth control rate is above 85%) | 5 (Level 5: growth control rate is above 85%) | 5 (Level 5: growth control rate is above 85%) | 5 (Level 5: growth control rate is above 85%) | 
CCOC(=O)/C(C)=N/OC(=O)C(C)O/N=C/c1cc(-n2c(=O)cc(C(F)(F)F)n(C)c2=O)c(F)cc1Cl (stereo not drawn) [Compound 254] | 5 (Level 5: growth control rate is above 85%) | 5 (Level 5: growth control rate is above 85%) | 5 (Level 5: growth control rate is above 85%) | 5 (Level 5: growth control rate is above 85%) | 5 (Level 5: growth control rate is above 85%) | 5 (Level 5: growth control rate is above 85%) | 
CC(C)=NOC(=O)[C@@H](C)O/N=C/c1cc(-n2c(=O)n(C)c(=S)n(C)c2=O)c(F)cc1Cl [20(R)] | 5 (Level 5: growth control rate is above 85%) | 5 (Level 5: growth control rate is above 85%) | 5 (Level 5: growth control rate is above 85%) | 5 (Level 5: growth control rate is above 85%) | 5 (Level 5: growth control rate is above 85%) | 5 (Level 5: growth control rate is above 85%) | 
CC(O/N=C/c1cc(-n2c(=O)cc(C(F)(F)F)n(C)c2=O)c(F)cc1Cl)C(=O)OCC(F)F (racemic) [Compound 217] | 5 (Level 5: growth control rate is above 85%) | 5 (Level 5: growth control rate is above 85%) | 5 (Level 5: growth control rate is above 85%) | 5 (Level 5: growth control rate is above 85%) | 5 (Level 5: growth control rate is above 85%) | 5 (Level 5: growth control rate is above 85%) | 
COC(=O)[C@@H](C)O/N=C/c1cc(-n2c(=S)cc(C(F)(F)F)n(C)c2=S)c(F)cc1C#N [393(R)] |  |  |  |  |  |  | Weeding effect in post-emergence stage, Setaria viridis (level) (Setaria viridis; Dose 60 g/ha): 5 (Level 5: growth control rate is above 85%); Weeding effect in post-emergence stage, Eleusine indica (level) (Eleusine indica; Dose 60 g/ha): 5 (Level 5: growth control rate is above 85%); Weeding effect in post-emergence stage, Digitaria sanguinalis (level) (Digitaria sanguinalis; Dose 60 g/ha): 5 (Level 5: growth control rate is above 85%); Weeding effect in post-emergence stage, Alopecurus japonicus (level) (Alopecurus japonicus; Dose 60 g/ha): 5 (Level 5: growth control rate is above 85%); Weeding effect in post-emergence stage, Abutilon theophrasti (level) (Abutilon theophrasti; Dose 60 g/ha): 5 (Level 5: growth control rate is above 85%); Weeding effect in post-emergence stage, Echinochloa crusgalli (level) (Echinochloa crusgalli; Dose 60 g/ha): 5 (Level 5: growth control rate is above 85%)
CC(C)=NOC(=O)C(C)O/N=C/c1cc(-n2c(=O)n(C)c(=S)n(C)c2=O)c(F)cc1Cl (stereo not drawn) [Compound 20] | 5 (Level 5: growth control rate is above 85%) | 5 (Level 5: growth control rate is above 85%) | 5 (Level 5: growth control rate is above 85%) | 5 (Level 5: growth control rate is above 85%) | 5 (Level 5: growth control rate is above 85%) | 5 (Level 5: growth control rate is above 85%) | 
C[C@@H](O/N=C/c1cc(-n2c(=O)cc(C(F)(F)F)n(C)c2=O)c(F)cc1Cl)C(=O)OCC1(C#N)CC1 [447(R)] |  |  |  |  |  |  | Weeding effect in post-emergence stage, Setaria viridis (level) (Setaria viridis; Dose 15 g/ha): 5 (Level 5: growth control rate is above 85%); Weeding effect in post-emergence stage, Eleusine indica (level) (Eleusine indica; Dose 15 g/ha): 5 (Level 5: growth control rate is above 85%); Weeding effect in post-emergence stage, Digitaria sanguinalis (level) (Digitaria sanguinalis; Dose 15 g/ha): 5 (Level 5: growth control rate is above 85%); Weeding effect in post-emergence stage, Alopecurus japonicus (level) (Alopecurus japonicus; Dose 15 g/ha): 5 (Level 5: growth control rate is above 85%); Weeding effect in post-emergence stage, Abutilon theophrasti (level) (Abutilon theophrasti; Dose 15 g/ha): 5 (Level 5: growth control rate is above 85%); Weeding effect in post-emergence stage, Echinochloa crusgalli (level) (Echinochloa crusgalli; Dose 15 g/ha): 5 (Level 5: growth control rate is above 85%)
CCO/C(C)=N/OC(=O)C(C)O/N=C/c1cc(-n2c(=O)cc(C(F)(F)F)n(C)c2=O)c(F)cc1Cl (stereo not drawn) [Compound 252] | 5 (Level 5: growth control rate is above 85%) | 5 (Level 5: growth control rate is above 85%) | 5 (Level 5: growth control rate is above 85%) | 5 (Level 5: growth control rate is above 85%) | 5 (Level 5: growth control rate is above 85%) | 5 (Level 5: growth control rate is above 85%) | 
CCOC(=O)[C@H](O/N=C/c1cc(-n2c(=O)cc(C(F)(F)F)n(C)c2=O)c(F)cc1Cl)C1CC1 [319(R)] |  |  |  |  |  |  | Weeding effect in post-emergence stage, Setaria viridis (Setaria viridis; Dose 30 g/ha): 5 (Level 5: growth control rate is above 85%); Weeding effect in post-emergence stage, Eleusine indica (Eleusine indica; Dose 30 g/ha): 5 (Level 5: growth control rate is above 85%); Weeding effect in post-emergence stage, Digitaria sanguinalis (Digitaria sanguinalis; Dose 30 g/ha): 5 (Level 5: growth control rate is above 85%); Weeding effect in post-emergence stage, Alopecurus japonicus (Alopecurus japonicus; Dose 30 g/ha): 5 (Level 5: growth control rate is above 85%); Weeding effect in post-emergence stage, Abutilon theophrasti (Abutilon theophrasti; Dose 30 g/ha): 5 (Level 5: growth control rate is above 85%); Weeding effect in post-emergence stage, Echinochloa crusgalli (Echinochloa crusgalli; Dose 30 g/ha): 5 (Level 5: growth control rate is above 85%)
COC(=O)C(C)O/N=C/c1cc(-n2c(=S)cc(C(F)(F)F)n(C)c2=S)c(F)cc1C#N (racemic) [Compound 393] |  |  |  |  |  |  | Weeding effect in post-emergence stage, Setaria viridis (level) (Setaria viridis; Dose 60 g/ha): 5 (Level 5: growth control rate is above 85%); Weeding effect in post-emergence stage, Eleusine indica (level) (Eleusine indica; Dose 60 g/ha): 5 (Level 5: growth control rate is above 85%); Weeding effect in post-emergence stage, Digitaria sanguinalis (level) (Digitaria sanguinalis; Dose 60 g/ha): 5 (Level 5: growth control rate is above 85%); Weeding effect in post-emergence stage, Alopecurus japonicus (level) (Alopecurus japonicus; Dose 60 g/ha): 5 (Level 5: growth control rate is above 85%); Weeding effect in post-emergence stage, Abutilon theophrasti (level) (Abutilon theophrasti; Dose 60 g/ha): 5 (Level 5: growth control rate is above 85%); Weeding effect in post-emergence stage, Echinochloa crusgalli (level) (Echinochloa crusgalli; Dose 60 g/ha): 5 (Level 5: growth control rate is above 85%)
C[C@@H](O/N=C/c1cc(-n2c(=O)n(C)c(=S)n(C)c2=O)c(F)cc1Cl)C(=O)OCCCF [11(R)] | 5 (Level 5: growth control rate is above 85%) | 5 (Level 5: growth control rate is above 85%) | 5 (Level 5: growth control rate is above 85%) | 5 (Level 5: growth control rate is above 85%) | 5 (Level 5: growth control rate is above 85%) | 5 (Level 5: growth control rate is above 85%) | 
